The results in this text go back to patent US10370380B2, “Octahydropyrrolo[3,4-c]pyrrole derivatives and uses thereof” (Sunshine Lake Pharma Co., Ltd., priority 2015, dated 2019).

Where two headings read alike, the source gives them in different places.

A short description of data set [1]: Pharmacokinetic evaluation after intravenous or gavage administration to rats. Conditions: SD, rat, in vivo. It counts as in vivo, SD rats. On the procedure:
(§1) The compounds disclosed herein were administered in form of a saline solution containing 5% DMSO, 5% Kolliphor HS 15, 2% (2% HCl) and 88% Saline, or a solution containing 10% DMSO, 10% Kolliphor HS 15 and 80% physiological saline to the subject animals. For intravenous administration, the animals were administered with a dose of 1 mg/kg or 2 mg/kg, and vein blood samples (0.3 mL) were collected at the time points of 0.083, 0.25, 0.5, 1.0, 2.0, 4.0, 6.0, 8.0 and 24 h after drug administration; plasma samples were collected by centrifugation of the vein blood samples at 3000 rpm or 4000 rpm for 10 minutes, and stored at −20° C. or −70° C. For gavage administration, the animals were administered with a dose of 2.5 mg/kg or 5 mg/kg, and vein blood samples (0.3 mL) were collected at the time points of 0.25, 0.5, 1.0, 2.0, 4.0, 6.0, 8.0 and 24 h after drug administration; plasma samples were collected by centrifugation at 3000 rpm or 4000 rpm for 10 minutes, and stored at −20° C. or −70° C. The positive control is suvorexant.
(§2) The above plasma samples were analyzed by the LC-MS/MS system.

In a further data set the target is T1, humanized OX2 receptor (Homo sapiens, UniProt O43614).
T1 construct: expressed in transfected cells; host or cells: HEK-293 cells
T1 sequence (O43614 1-444): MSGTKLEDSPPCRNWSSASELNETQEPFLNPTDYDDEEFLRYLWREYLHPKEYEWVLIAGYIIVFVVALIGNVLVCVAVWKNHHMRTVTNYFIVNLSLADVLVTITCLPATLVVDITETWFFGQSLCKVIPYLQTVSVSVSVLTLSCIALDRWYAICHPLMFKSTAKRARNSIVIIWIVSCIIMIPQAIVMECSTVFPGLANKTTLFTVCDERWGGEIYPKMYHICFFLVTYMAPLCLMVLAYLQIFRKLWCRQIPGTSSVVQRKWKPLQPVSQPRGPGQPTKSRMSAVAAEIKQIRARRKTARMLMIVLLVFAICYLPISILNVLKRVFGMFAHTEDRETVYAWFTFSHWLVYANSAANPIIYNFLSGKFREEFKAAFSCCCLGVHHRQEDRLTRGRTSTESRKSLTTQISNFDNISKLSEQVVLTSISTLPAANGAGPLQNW
Description: Antagonistic effect on humanized OX2 receptor, calcium flux by fluorescence detection in HEK-293 cells. In kind it is cell-based. On the procedure:
(§3) The capability of the compounds provided herein to antagonize humanized OX2 receptors expressed in HEK-293 cells was evaluated by the influence of the compounds disclosed herein on calcium flux in cells induced by agonist detected by a method of fluorescence detection. The cells were suspended in DMEM culture medium (invitrogen), and then added to a microplate with an average density of 3×10^4 cells/well. The Hank's balanced salt solution (pH 7.4) containing fluorescent probes (Fluo4 NW, Invitrogen), probenecid (invitrogen), 20 mM […] (invitrogen) was added to the above microplate, and then incubated together with the cells at 37° C. for 60 min, further incubated at 22° C. for 15 min. The microplate was placed in a microplate reader (CellLux, PerkinElmer), and to which was added the test compound or reference antagonist or Hank's balanced salt solution, 5 min later, 10 nM of orexin B or Hank's balanced salt solution (as a blank contrast) was added. […] The experimental results were expressed as an inhibition percentage relative to a control group (the group with 10 nM of orexin B).
The standard reference antagonist is JNJ10397049, and IC50 values were calculated by the dose-effect curve obtained from a series of concentrations of the experimental test.
A general note: Calcium flux is commonly read through the fluorescence of an indicator in the cells.

The target in another data set is T2, humanized OX1 receptor (Homo sapiens, UniProt O43613).
T2 construct: expressed in transfected cells; host or cells: CHO (Chinese hamster ovary) cells
T2 sequence (O43613 1-425): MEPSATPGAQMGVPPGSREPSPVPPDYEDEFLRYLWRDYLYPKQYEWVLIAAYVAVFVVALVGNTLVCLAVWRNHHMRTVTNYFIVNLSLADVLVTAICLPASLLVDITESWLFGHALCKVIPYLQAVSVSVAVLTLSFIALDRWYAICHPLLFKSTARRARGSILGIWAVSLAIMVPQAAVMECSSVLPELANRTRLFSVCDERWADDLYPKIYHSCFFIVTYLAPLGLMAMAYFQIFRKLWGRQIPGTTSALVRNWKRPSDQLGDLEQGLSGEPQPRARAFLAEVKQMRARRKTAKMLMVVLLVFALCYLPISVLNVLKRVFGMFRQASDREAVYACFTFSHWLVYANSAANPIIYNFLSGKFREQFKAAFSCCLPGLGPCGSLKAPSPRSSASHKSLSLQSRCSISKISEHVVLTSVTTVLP
The data set can be described thus: Antagonistic effect on humanized OX1 receptor, calcium flux by fluorescence detection in CHO cells. In kind it is cell-based. As to conditions: CHO cells, calcium flux induced by 3 nM orexin A; read-out: OX1 IC50. On the procedure:
as §3, with “OX1 receptor” for “OX2 receptors”, “Chinese hamster ovary (CHO)” for “HEK-293”, “2×10^4” for “3×10^4”, “3” for “10”, “A” for “B”, “A).” for “B).”
The standard reference antagonist is SB334867, and IC50 values were calculated by the dose-effect curve obtained from a series of concentrations of the experimental test.

A short description of data set [2]: Pharmacokinetic evaluation after intravenous or gavage administration to dogs. In kind it is in vivo, Beagle dogs. Conditions: beagle, dog, in vivo. On the procedure:
as §1, §2

Where [3] appears, read: HEK-293 cells, calcium flux induced by 10 nM orexin B, read-out: OX2 IC50.

One may read the AUC(0-inf) as the area under the concentration-time curve extrapolated to infinity. A low value points to less exposure. As usually defined, the AUC(0-t) is the area under the concentration-time curve up to a stated or last time point. By Cmax is commonly meant the highest concentration seen after dosing. The MRT inf is the average time that molecules of a dose stay in the body. What is called half-life is how long it takes for the measured level to halve. Higher therefore signals slow loss. The term IC50 denotes the concentration that inhibits the measured activity by half. In data set [1] (iv, 1 mg/kg), `O=C(c1ccccc1-n1nccn1)N1CC2CN(c3nc4cc(Cl)ccc4o3)CC2C1` (centres unmarked) [Example 2, (2-(2H-1,2,3-triazol-2-yl)phenyl)(5-(5-chlorobenzo[d]oxazol-2-yl)hexahydropyrrolo[3,4-c]pyrrol-2(1H)-yl)methanone] displayed an AUC(0-inf) of 551 ng·h/mL, an AUC(0-t) of 549 ng·h/mL, a Cmax of 639 ng/mL and an MRT inf of 47.2 min. Moreover, in data set [1] (iv, 1 mg/kg), the Vd is 1.42 L/kg, the clearance was determined as 30.4 mL/min/kg and the half-life is 36.1 min. In addition, in data set [1] (po, 2.5 mg/kg), the AUC(0-inf) amounted to 790 ng·h/mL, the AUC(0-t) was 783 ng·h/mL, the Cmax was determined as 485 ng/mL and the F stood at 57.3%. Moreover, in data set [1] (po, 2.5 mg/kg), the MRT inf amounted to 88.8 min and the half-life is 61.8 min. Moreover, the IC50 on humanized OX2 receptor (setting [3]) came out at 221 nM.

In the case of `Cc1ccc(-n2nccn2)c(C(=O)N2CC3CN(c4nc5cc(F)ccc5o4)CC3C2)c1` (centres unmarked) [Example 4, (5-(5-fluorobenzo[d]oxazol-2-yl)hexahydropyrrolo[3,4-c]pyrrol-2(1H)-yl)(5-methyl-2-(2H-1,2,3-triazol-2-yl)phenyl)methanone], the IC50 on humanized OX2 receptor amounted to 342 nM; at humanized OX1 receptor, 611 nM.

For the compound `Cc1ccc(-n2nccn2)c(C(=O)N2CC3CN(c4ncc5cc(F)ccc5n4)CC3C2)c1` (centres unmarked) [Example 12, (5-(6-fluoroquinazolin-2-yl)hexahydropyrrolo[3,4-c]pyrrol-2(1H)-yl)(5-methyl-2-(2H-1,2,3-triazol-2-yl)phenyl)methanone], in data set [1] (iv, 1 mg/kg), the AUC(0-inf) was determined as 460 ng·h/mL, the AUC(0-t) came out at 460 ng·h/mL, the Cmax turned out to be 749 ng/mL and the MRT inf is 25.6 min. For the same compound, in data set [1] (iv, 1 mg/kg), the Vd came out at 0.987 L/kg, the clearance was 40.1 mL/min/kg and the half-life was 24.3 min. In data set [1] (po, 2.5 mg/kg), this compound yielded an AUC(0-inf) of 454 ng·h/mL, an AUC(0-t) of 452 ng·h/mL, a Cmax of 340 ng/mL and an F of 39.3%. In data set [1] (po, 2.5 mg/kg), this compound gave an MRT inf of 76.8 min and a half-life of 50.2 min. Besides, the IC50 on humanized OX2 receptor (setting [3]) is 140 nM. Further, in data set [2] (iv, 1 mg/kg), the AUC(0-inf) worked out at 1140 ng·h/mL, the AUC(0-t) came out at 1130 ng·h/mL, the peak level (Cmax) was 1390 ng/mL and the MRT inf turned out to be 0.97 h. In data set [2] (iv, 1 mg/kg), the Vd was determined as 0.85 L/kg, the clearance was 14.7 mL/min/kg and the half-life was 42 min. In data set [2] (po, 5 mg/kg), the AUC(0-inf) came out at 7880 ng·h/mL, the AUC(0-t) turned out to be 7310 ng·h/mL, the Cmax was 2310 ng/mL and the F came out at 129.4%. In data set [2] (po, 5 mg/kg), this compound had an MRT inf of 3.11 h and a half-life of 119 min. Further, at humanized OX1 receptor, the IC50 was found to be 347 nM.

Consider `O=C(c1ccccc1-n1nccn1)N1CC2CN(c3nc4cc(F)ccc4o3)CC2C1` (centres unmarked) [Example 5, (2-(2H-1,2,3-triazol-2-yl)phenyl)(5-(5-fluorobenzo[d]oxazol-2-yl)hexahydropyrrolo[3,4-c]pyrrol-2(1H)-yl)methanone], for which the IC50 at humanized OX2 receptor (setting [3]) came to 235 nM; on humanized OX1 receptor it was 642 nM.

On to `O=C(c1c(F)cccc1-n1nccn1)N1CC2CN(c3nc4cc(Cl)ccc4o3)CC2C1` (centres unmarked) [Example 3, (5-(5-chlorobenzo[d]oxazol-2-yl)hexahydropyrrolo[3,4-c]pyrrol-2(1H)-yl)(2-fluoro-6-(2H-1,2,3-triazol-2-yl)phenyl)methanone], for which, in data set [1] (iv, 1 mg/kg), the AUC(0-inf) was found to be 626 ng·h/mL, the AUC(0-t) was 624 ng·h/mL, the peak level (Cmax) was 760 ng/mL and the MRT inf was 45.5 min. Besides, in data set [1] (iv, 1 mg/kg), the Vd worked out at 1.21 L/kg, the clearance amounted to 26.7 mL/min/kg and the half-life is 34.6 min. Further, in data set [1] (po, 2.5 mg/kg), the AUC(0-inf) was found to be 907 ng·h/mL, the AUC(0-t) was determined as 904 ng·h/mL, the Cmax is 567 ng/mL and the F came to 57.9%. In addition, in data set [1] (po, 2.5 mg/kg), the MRT inf is 82.2 min and the half-life is 52.4 min. For the same compound, the IC50 on humanized OX2 receptor (setting [3]) came out at 147 nM. Moreover, in data set [2] (iv, 1 mg/kg), the AUC(0-inf) is 8330 ng·h/mL, the AUC(0-t) turned out to be 8320 ng·h/mL, the highest level (Cmax) was 3830 ng/mL and the MRT inf was determined as 2.91 h. Besides, in data set [2] (iv, 1 mg/kg), the Vd is 1.75 L/kg and the half-life is 144 min. In data set [2] (po, 5 mg/kg), this compound returned an AUC(0-t) of 35000 ng·h/mL, a Cmax of 5640 ng/mL, an F of 84.0% and an MRT inf of 4.59 h. The same compound had a half-life in data set [2] (po, 5 mg/kg) of 176 min.

Regarding `O=C(c1c(F)cccc1-n1nccn1)N1CC2CN(c3nc4cc(F)ccc4o3)CC2C1` (centres unmarked) [Example 6, (2-fluoro-6-(2H-1,2,3-triazol-2-yl)phenyl)(5-(5-fluorobenzo[d]oxazol-2-yl)hexahydropyrrolo[3,4-c]pyrrol-2(1H)-yl)methanone], the figures for the IC50 at humanized OX2 receptor (setting [3]) and at humanized OX1 receptor were 201 nM and 589 nM, respectively.

Take `O=C(c1ccccc1-n1nccn1)N1CC2CN(c3ncc4cc(F)ccc4n3)CC2C1` (centres unmarked) [Example 13, (2-(2H-1,2,3-triazol-2-yl)phenyl)(5-(6-fluoroquinazolin-2-yl)hexahydropyrrolo [3,4-c]pyrrol-2(1H)-yl)methanone]: in data set [1] (iv, 1 mg/kg), the AUC(0-inf) was determined as 865 ng·h/mL, the AUC(0-t) is 864 ng·h/mL, the Cmax is 1270 ng/mL and the MRT inf was found to be 32.9 min. In data set [1] (iv, 1 mg/kg), this compound gave a Vd of 0.648 L/kg, a clearance of 20.1 mL/min/kg and a half-life of 30.1 min. For the same compound, in data set [1] (po, 2.5 mg/kg), the AUC(0-inf) turned out to be 752 ng·h/mL, the AUC(0-t) worked out at 750 ng·h/mL, the Cmax was determined as 537 ng/mL and the F is given as 34.7%. In data set [1] (po, 2.5 mg/kg), this compound gave an MRT inf of 70.2 min and a half-life of 41 min.
